Results on 5 molecules are retold here after PMC12169104, “Towards the development of supramolecular self-associating amphiphiles as antibiofilm agents against Pseudomonas aeruginosa and Candida albicans biofilms” (Journal of Materials Chemistry. B, 2025).

Where “and” joins values, the source holds several entries; their conditions need not be identical. Identical values can stand only once. Marks after values point to notes of the source that are not given here.

Series [1] in a line: Dynamic light scattering (DLS) of SSA aggregates. The format is physicochemical. The conditions noted are these: for Peak 1 (nm) / Peak 2 (nm) / Peak 3 (nm): DLS average intensity particle size distribution; for Peak 1 (nm) / Peak 2 (nm) / Peak 3 (nm) / PDI: EtOH:H2O 1:19; for dH (nm): DLS intensity distribution peak maxima, H2O:EtOH 19:1, 2.78 mM, 298 K, after annealing. From the text: DLS studies: All vials used for preparing the samples were clean and dry. All solvents used were filtered to remove any particulates that may interfere with the results obtained. Samples of differing concentrations were obtained through serial dilution of a concentrated solution. All samples underwent an annealing process, in which they were heated to 313 K before being allowed to cool to 298 K to allow each sample to reach a thermodynamic minimum. […]

Series [2] in a line: 1H NMR dilution study, dimerization constant (EK model, Bindfit v0.5). The format is physicochemical. The conditions noted are these: DMSO-d6/0.5% H2O, SSA anion dimerization. From the text: (§1) The self-associative properties of SSAs 1–5, and co-formulations a–j, were studied using previously published methodologies, the results of which are summarised in Table 1.[44,45] Initially, we quantified the strength of homogeneous SSA anion self-association events, to confirm the effect of the squaramide – (thio)urea substitution. […] Complimentary ^1H NMR DOSY experiments conducted in DMSO-d6 0.5% H2O solutions at 298 K confirmed the SSA anion and cation components to diffuse at different rates, providing supporting evidence towards the lack of any strong ion pairing interactions between the SSA anionic and cationic components under these experimental conditions. […] The formation of SSA anionic dimers has also been shown in the solid state through single crystal X-ray diffraction experiments.[42,43,46] […] Here the SSA anion dimer is stabilised through the formation of four intermolecular squaramide-anion hydrogen bonds. Proton NMR spectroscopy dilution study data, obtained from a DMSO-d6 0.5% H2O solution, were then fitted to both the EK (the equal K single component linear self-associative or dimerization model) and CoEK (the cooperative equal K single component linear self-associative or dimerization model) self-association models using Bindfit v0.5.[47,48] […] The dimerization constants calculated confirm that substitution of the sulfonate ion (1 and 3) for the carboxylate ion (2) increase Kdim by approximately 50-fold. However, substituting the thiourea (2) for the squaramide (5) functionality increases the Kdim by a further 70-fold. Therefore, confirming our initial hypothesis, that incorporating the squaramide residue within the SSA anion structure would increase the strength of SSA anion self-association events.

The nature of series [3]: 1H NMR DOSY, hydrodynamic diameter of SSA anion. The format is physicochemical. Conditions: DMSO-d6/0.5 % H2O, 298 K.
Excerpt: as §1

Series [4] can be described thus: Membrane fluidity fluorescence polarization (DPH) assay. Conditions: SSA 1.5 mM, HEPES buffer pH 7.4, 298 K, n = 3, error = SD. An excerpt:
Next, we sought to understand the effects of 1, 2, 4 and 5 and a, c, d, f, g, j on synthetic vesicle phospholipid membrane fluidity using a fluorescence polarization (FP) assay.[52] Here, the fluorescent reporter dye 1,6-diphenyl-1,3,5-hexatriene (DPH) is incorporated into the vesicles phospholipid bilayer. As membrane fluidity is increased, the DPH reporter dye moves more freely within the phospholipid bilayer environment, resulting in a decreased FP value. However, should the membrane become more rigid, the movement of the dye is decreased and the FP value increases. As 3 is intrinsically fluorescent and overlaps with the fluorescence excitation/emission properties of the DPH, this SSA and co-formulations incorporating this compound were not included. […]
Preparation of vesicles: All lipids were purchased as powder stocks from Avanti Polar Lipids. Lipid vesicles were prepared according to standard procedures. Each phospholipid (~ 20 mg) was dissolved in chloroform: methanol 3:1 (~ 10 mL) and the solvent was removed under reduced pressure. The thin film of dried lipid was further dried in vacuo overnight. Lipid films were resuspended in the desired buffer and subjected to 10 freeze-thaw cycles in liquid nitrogen and extruded 19 times through a 200 nm polycarbonate membrane. […]
Preparation of DPH fluorescent labelled vesicles: Lipid films were resuspended in buffer (150 mM KCl, 10 mM HEPES, pH 7.4, 2 mM EGTA) and subjected to 10 freeze-thaw cycles in liquid nitrogen and extruded 20 times through a 200 nm polycarbonate membrane. For fluorescent labelling, the desired vesicles were pre-incubated with DPH (10 µM) at 60 °C for 1 hour.
Membrane fluidity assay: Black bottom 96-well plates were prepared by serially diluting desired SSA in a EtOH: H2O 1:19 solution across the plate, the appropriate DPH labelled vesicles (100 µL, 60 µM) were added to each well to give a total well volume of 200 µL. FP measurements were taken at 25 °C using a 355 nm filter for excitation and a […] for emission. The DPH labelled vesicles were set to a FP value of 100 mP. Data were acquired in endpoint mode. All experiments were repeated in triplicate to ensure experimental reproducibility.

Series [5] is described as follows: Membrane permeability and adhesion assay (1H CPMG NMR; PF and MAF). Conditions: SSA anion(s), 200 μM, 298 K; for MAF (membrane adhesion factor): error ±0.05 unless stated, MAF < 1 suggests adhesion; for PF (membrane permeation factor): error ±0.1 unless stated, PF > 1 suggests permeable. From the text: Finally, in line with our previous work, we moved to characterise the membrane adhesion and permeation events of 1–5 and co-formulations a–j with PE : PG 1 : 1 synthetic phospholipid vesicles.[53] This vesicle composition was prioritised for further analysis as this composition acts as a model for an AMR resistant strain of the ESKAPE pathogen P. aeruginosa,[54,55] categorised as high priority by the WHO.[33] As summarised in Table 4, membrane permeation (PF) and membrane adhesion factors (MAF) for the SSA anionic components were calculated through the use of ^1H CPMG NMR spectroscopy experiments, using vesicles produced by extrusion through a 1000 nm polycarbonate membrane.
Here the lower the MAF, the stronger the adhesion of the molecule to the surface of the phospholipid membrane. […] A PF value of 1 or above provides evidence of SSA permeation. The greater this value above 1, the greater the membrane permeation potential of a compound. […]
Membrane permeability and adhesion assay, determining membrane adhesion factors (MAF) and permeation factors (PF): Lipid vesicles of DOPE and PG, in a 1:1 ratio by weight were prepared as described in ‘preparation of vesicles’ with one alteration. Here vesicles were extruded 21 times through a 1000 nm polycarbonate membrane. NMR samples were prepared containing: SSA ( 200 µM), 95% HEPES buffer (HEPES (10 mM), NaCl (10 mM)) and 5% D 2O, and sodium trimethylsilylpropanesulfonate - DSS (1 µM). In order to calculate the PF and MAF the paramagnetic relaxation enhancement agent (PRE), gadodiamide (1 mM) was added to the NMR mixture. Where lipid vesicles were present in the NMR mixture, vesi cles were added at a concentration of 0.1 mg/mL.
All 1H CPMG NMR spectra were collected with a spin -lock time of 150 mS on a Bruker Avance III spectrometer equipped with a cold probe at a proton frequency of 600 MHz and recorded at 298 K.
Peak intensities were measured using MestReNova (Mestrelab Research). The MAF and PF were determined using previously published method. 3 For individual SSAs, MAF and PF were calculated using all aromatic CH resonances. For SSA co -formulations an average MAF and PF were calculated using all aromatic CH resonances. For individual components of the SSA co -formulations, the resonances for the different SSA anions were treated independently of one another.

[6] abbreviates: polydispersity index of DLS dH, 2.78 mM.
[7] abbreviates: PE:PG 1:1 vesicles with DPH (10 μM).
Where [8] appears, read: PE:PG 3:1 vesicles with DPH (10 μM).

In the case of `O=S(=O)(O)CCCNC(=S)Nc1ccc(C(F)(F)F)cc1` [SSA 1], the “Peak 1 (nm)” value in series [1] (0.28 mM) amounted to 0.23 nm. The results for the “Peak 2 (nm)” value in series [1] (0.28 mM) and in series [1] (2.78 mM) were 100.61 nm and 184.36 nm, respectively. For the same molecule, the “Peak 3 (nm)” value in series [1] (0.28 mM) is listed as 747.99 nm. Moreover, the “dH (nm)” value in series [1] was 184.36 nm and 184 nm. Besides, the PDI was determined as 0.0602 in series [1] (DLS, 0.28 mM) and 0.0315 in series [1] (setting [6]). The “Kdim” value in series [2] was 3 M⁻¹ and 2.6 M⁻¹. Besides, the “dH (nm) of SSA anion, 1H NMR DOSY” value in series [3] came out at 1.50 nm. Further, the “Average FP values” in series [4] (setting [7]) is on record as 50 ± 1; in series [4] (setting [8]), −9 ± 3; in series [4] (PG vesicles with DPH (10 μM)), 29 ± 1. In addition, in series [5], the “MAF (membrane adhesion factor)” value came to 0.94. Also, the “PF (membrane permeation factor)” value in series [5] is given as 1.01.
For `O=C(O)CNC(=S)Nc1ccc(C(F)(F)F)cc1` [SSA 2], the “Peak 2 (nm)” value in series [1] (0.28 mM) amounted to 139.08 nm; in series [1] (2.78 mM), 142.73 nm. In addition, the “dH (nm)” value in series [1] is 142 nm and 143 nm. Further, the PDI in series [1] (DLS, 0.28 mM) was 0.0160; in series [1] (setting [6]), 0.0350. Further, the “Kdim” value in series [2] was found to be 105 M⁻¹. Further, the “dH (nm) of SSA anion, 1H NMR DOSY” value in series [3] is reported as 1.42 nm. Further, the results for the “Average FP values” in series [4] (setting [7]), in series [4] (setting [8]) and in series [4] (PG vesicles with DPH (10 μM)) were −1 ± 1, −40 ± 0 and 11 ± 8, respectively. The “MAF (membrane adhesion factor)” value in series [5] stood at 0.88. The “PF (membrane permeation factor)” value in series [5] was 0.85.
Take `Cc1ccc2nc(-c3ccc(NC(=O)NCS(=O)(=O)O)cc3)sc2c1` [SSA 3]: in series [1] (0.28 mM), the “Peak 1 (nm)” value is given as 0.43 nm, the “Peak 2 (nm)” value was determined as 56.01 nm and the “Peak 3 (nm)” value is listed as 462.06 nm. For the same molecule, in series [1] (2.78 mM), the “Peak 1 (nm)” value amounted to 51.65 nm and the “Peak 2 (nm)” value stood at 672.27 nm. In series [1], the “dH (nm)” value was 672.27 nm and 672 nm. The PDI in series [1] (DLS, 0.28 mM) is 0.0863. This molecule returned a PDI in series [1] (setting [6]) of 0.0658. Also, the “Kdim” value in series [2] is 3 M⁻¹ and 2.7 M⁻¹. Moreover, the “dH (nm) of SSA anion, 1H NMR DOSY” value in series [3] turned out to be 1.64 nm. Moreover, in series [5], the “MAF (membrane adhesion factor)” value is reported as 0.00 and the “PF (membrane permeation factor)” value is reported as 0.00.
On to `O=c1c(NCCCS(=O)(=O)O)c(Nc2ccc(C(F)(F)F)cc2)c1=O` [SSA 4], for which the “Peak 2 (nm)” value in series [1] (2.78 mM) amounted to 162.46 nm. Besides, the “dH (nm)” value in series [1] was 162.46 nm and 162 nm. The PDI in series [1] (DLS, 0.28 mM) turned out to be 0.0452; in series [1] (setting [6]), 0.0388. The “dH (nm) of SSA anion, 1H NMR DOSY” value in series [3] came to 1.65 nm. Moreover, the entries for the “Average FP values” in series [4] (setting [7]), in series [4] (setting [8]) and in series [4] (PG vesicles with DPH (10 μM)) were 151 ± 5, 73 ± 14 and 150 ± 8, respectively. In addition, the “MAF (membrane adhesion factor)” value in series [5] is 0.38. The “PF (membrane permeation factor)” value in series [5] is listed as 1.48 ^a.
In the case of `O=C(O)CNc1c(Nc2ccc(C(F)(F)F)cc2)c(=O)c1=O` [SSA 5], the figures for the “Peak 2 (nm)” value in series [1] (0.28 mM) and in series [1] (2.78 mM) were 125.90 nm and 160.53 nm, respectively. Also, the “Peak 3 (nm)” value in series [1] (0.28 mM) is reported as 747.97 nm. In series [1], the “dH (nm)” value is on record as 174 nm. The PDI was 0.0547 in series [1] (DLS, 0.28 mM) and 0.0614 in series [1] (setting [6]). Moreover, in series [2], the “Kdim” value amounted to 7636 M⁻¹. The “dH (nm) of SSA anion, 1H NMR DOSY” value in series [3] was 1.61 nm. The “Average FP values” in series [4] (setting [7]) is 146 ± 4; in series [4] (setting [8]), 106 ± 7; in series [4] (PG vesicles with DPH (10 μM)) it was 152 ± 6. Moreover, the “MAF (membrane adhesion factor)” value in series [5] is recorded as 0.38. Also, the “PF (membrane permeation factor)” value in series [5] is 0.67.
